What was measured:
Hepatitis C virus = experiment: Antiviral activity against Hepatitis C virus infected in human Huh7/Rep-Feo cells assessed as inhibition of viral replication after 72 hrs by luciferase assay; format: functional, organism-based, Hepacivirus hominis; details: Huh-7, 72 h
[1] = Inhibition of HCV recombinant N-terminal histidine-tagged NS3/4A protease expressed Escherichia coli using Mca-Asp-Asp-Ile-Val-Pro-Cys-Ser-Met-Lys(Dnp)-Arg-Arg as fluorogenic substrate after 30 mins by FRET assay; design: species or system Hepacivirus hominis
[2] = Cytotoxicity against human HuH7 cells expressing chimeric gene encoding firefly luciferase and neomycin phosphotransferase assessed as cell proliferation after 72 hrs by MTT assay; format: cell-based, Huh-7
[3] = Selectivity index, ratio of CC50 for human HuH7 cells expressing chimeric gene encoding firefly luciferase and neomycin phosphotransferase by cell titer-glo luminescent cell viability assay to EC50 for HCV; design: species or system Huh-7
[4] = Cytotoxicity against human HuH7 cells expressing chimeric gene encoding firefly luciferase and neomycin phosphotransferase assessed as cell viability after 72 hrs by cell titer-glo luminescent assay; format: cell-based, Huh-7
Hepacivirus hominis [5] = experiment: Ratio of EC50 for HCV to IC50 for HCV recombinant N-terminal histidine-tagged NS3/4A protease
Hepacivirus hominis [6] = experiment: Inhibition of HCV recombinant N-terminal histidine-tagged NS3/4A protease expressed Escherichia coli using Mca-Asp-Asp-Ile-Val-Pro-Cys-Ser-Met-Lys(Dnp)-Arg-Arg as fluorogenic substrate at 100 uM after 30 mins by FRET assay
[7] = Selectivity index, ratio of CC50 for human HuH7 cells expressing chimeric gene encoding firefly luciferase and neomycin phosphotransferase by MTT assay to EC50 for HCV; design: species or system Huh-7

SMILES	EC50 (Hepatitis C virus) [µM]	IC50 [1] [µM]	CC50 at 72 h [2] [µM]	Ratio CC50/EC50 [3]	CC50 at 72 h [4] [µM]	Ratio (Hepacivirus hominis [5])	inhibition (Hepacivirus hominis [6]) [%]	Ratio CC50/EC50 [7]
C=CCc1cc(/N=N/C(=O)c2cc3cc([N+](=O)[O-])ccc3o2)cc(OCC)c1OCc1ccc(Cl)cc1	> 125	8.07	> 125					
CCC(C)Oc1ccc(/N=N/C(=O)c2cc3cc([N+](=O)[O-])ccc3o2)cc1Br (centres undefined)	13.5	22.7	57	2.6	36			
CCc1cc(OCc2ccc([N+](=O)[O-])cc2)c(OC)cc1/C=N/NC(=O)c1cc2cc([N+](=O)[O-])ccc2o1		11.9						
O=C(COc1ccc([N+](=O)[O-])cc1)N/N=C/c1ccccc1OC(=O)c1sc2ccccc2c1Cl	19.5	1.06	> 125	2.1	40	10		
COc1cc(/C=N/NC(=O)c2cc3cc([N+](=O)[O-])ccc3o2)ccc1OCc1ccc([N+](=O)[O-])cc1	12	8.59	> 125	>9.3	> 80			
CC(Oc1ccc([N+](=O)[O-])cc1)C(=O)N/N=C/c1ccccc1OC(=O)c1sc2ccccc2c1Cl (centres undefined)	12.5	1.01	> 125	1.5	19	10		
CCOc1cc(/C=N/NC(=O)C(C)Oc2ccc([N+](=O)[O-])cc2)ccc1OC(=O)c1ccc(Cl)cc1Cl (centres undefined)	23		> 125				42.9	>5.4
CCCOc1ccc(C(=O)Oc2ccc(/C=N/NC(=O)COc3ccc([N+](=O)[O-])cc3)cc2OCC)cc1	13		> 125				38	>9.6
COc1ccc(C(=O)Cc2ccc3ccccc3c2/C=N/NC(=O)COc2ccc([N+](=O)[O-])cc2)cc1	8.5	64.3	> 125	1.1	9			
COc1cc(/C=N/NC(=O)c2cc3cc([N+](=O)[O-])ccc3o2)c(C)cc1OCc1ccc([N+](=O)[O-])cc1		17.1						
COc1cc(/C=N/NC(=O)C(C)Oc2ccc([N+](=O)[O-])cc2)ccc1OC(=O)c1sc2ccccc2c1Cl (centres undefined)	121	4.08	> 125			10		
COc1cc(/C=N/NC(=O)c2cc3cc([N+](=O)[O-])ccc3o2)cc([N+](=O)[O-])c1OCc1ccc([N+](=O)[O-])cc1		8.34						
COc1cc(/C=N/NC(=O)COc2ccc([N+](=O)[O-])cc2)ccc1OC(=O)c1sc2ccccc2c1Cl	93	12.3	> 125			10		

From ChEMBL document CHEMBL1914390, “A new method for induced fit docking (GENIUS) and its application to virtual screening of novel HCV NS3-4A protease inhibitors” (Bioorg Med Chem, 2011)
